pEC50: −log10 of the molar value.

One test has as its system VEGF. Briefly: Hypoxia-inducible endogenous VEGF expression ELISA in HeLa cells. To be noted: Homo sapiens, HeLa, compounds 1-155, hypoxic conditions (1% O2), VEGF protein by ELISA, read-out: ELISA Activity. The class given is cell-based. Here is the method: The ability of compounds of the invention to modulate hypoxia-inducible endogenous VEGF expression is analyzed as follows. VEGF protein levels are monitored by an ELISA assay (R&D Systems). Briefly, HeLa cells are cultured for 24-48 hours under hypoxic conditions (1% O2, 5% CO2, balanced with nitrogen) in the presence or absence of a compound of the invention. The conditioned media is then assayed by ELISA, and the concentration of VEGF is calculated from the standard ELISA curve of each assay.
A dose-response analysis is performed using the ELISA assay and conditions described above. A series of different concentrations (e.g., seven) are analyzed. In parallel, a dose-response cytotoxicity assay is performed using Cell Titer Glo (Promega) under the same conditions as the ELISA to ensure that the inhibition of VEGF expression is not due to cytotoxicity. Dose-response curves are plotted using percentage inhibition versus concentration of the compound, and EC50 and CC50 values are generated for each compound with the maximal inhibition set as 100% and the minimal inhibition as 0%.
Compounds 156-188 in Table 1 are commercially available. In Table 1, each of the represented compounds is followed by one to five stars.
(In general: ELISA stands for enzyme-linked immunosorbent assay.)
With `Brc1ccc2[nH]c3c(c2c1)CCCC3N1CC=CC1` (stereo not shown) [Compound 65, 6-Bromo-1-(2,5-dihydro-pyrrol-1-yl)-2,3,4,9-tetrahydro-1H-carbazole], the pEC50 was 6.00 to 6.70.
Same read-out and setting: the figure for `O=S(=O)(NC1CCCc2c1[nH]c1ccc(Br)cc21)c1ccccc1` (stereo not shown) [Compound 46, N-(6-Bromo-2,3,4,9-tetrahydro-1H-carbazol-1-yl)-benzenesulfonamide] is 6.70 to 7.40; for `O=Cc1ccn(C2CCCc3c2[nH]c2ccc(Br)cc32)c1` (stereo not shown) [Compound 38, 1-(6-Bromo-2,3,4,9-tetrahydro-1H-carbazol-1-yl)-1H-pyrrole-3-carbaldehyde] it is 6.70 to 7.40.
Same read-out and setting: the figure for `O=C(NC1CCCc2c1[nH]c1ccc(Br)cc21)c1ccc([N+](=O)[O-])o1` (stereo not shown) [Compound 146, 5-Nitro-furan-2-carboxylic acid (6-bromo-2,3,4,9-tetrahydro-1H-carbazol-1-yl)-amide] is 6.70 to 7.40.
The same measure, in the same setting: the figure for `Cc1nnc(C2CCCc3c2[nH]c2ccc(Br)cc32)o1` (stereo not shown) [Compound 100, 6-Bromo-1-(5-methyl-[1,3,4]oxadiazol-2-yl)-2,3,4,9-tetrahydro-1H-carbazole] is < 6.00; for `Brc1ccc2c3c([nH]c2c1)C(n1cccc1)CCC3` (stereo not shown) [Compound 121, 7-Bromo-1-pyrrol-1-yl-2,3,4,9-tetrahydro-1H-carbazole] it is < 6.00.
For the molecule `Brc1ccc2[nH]c3c(c2c1)CCCC3c1nnc(-c2ccccc2)o1` (stereo not shown) [Compound 111, 6-Bromo-1-(5-phenyl-[1,3,4]oxadiazol-2-yl)-2,3,4,9-tetrahydro-1H-carbazole], the pEC50 is < 6.00.
On to `Brc1ccc2oc3c(c2c1)CCCC3Nc1ccccc1` (stereo not shown) [Compound 107, (8-Bromo-1,2,3,4-tetrahydro-dibenzofuran-4-yl)-phenyl-amine], for which the pEC50 was < 6.00.
Consider `NC1CCCc2c1[nH]c1c(Br)cccc21` (stereo not shown) [Compound 99, 8-Bromo-2,3,4,9-tetrahydro-1H-carbazol-1-ylamine], for which the pEC50 was < 6.00.
The same measure, in the same setting: the figure for `O=C(NC1CCCc2c1[nH]c1ccc(Br)cc21)c1ccc(Cl)nc1` (stereo not shown) [Compound 52, N-(6-Bromo-2,3,4,9-tetrahydro-1H-carbazol-1-yl)-6-chloro-nicotinamide] is 6.70 to 7.40; for `Brc1ccc2[nH]c3c(c2c1)CCCC3n1ccc(CN2CCOCC2)c1` (stereo not shown) [Compound 64, 6-Bromo-1-(3-morpholin-4-ylmethyl-pyrrol-1-yl)-2,3,4,9-tetrahydro-1H-carbazole] it is 6.00 to 6.70; for `O=C1CCCc2c1[nH]c1ccc(Cl)cc21` [Compound 76, 6-Chloro-2,3,4,9-tetrahydro-carbazol-1-one] it is < 6.00.
Same read-out and setting: next, `O=C1CCCc2c1oc1ccc(Br)cc21` [Compound 105, 8-Bromo-2,3-dihydro-1H-dibenzofuran-4-one]: < 6.00; `O=C(NC1CCCc2c1[nH]c1ccc(Br)cc21)c1ccc(F)cc1F` (stereo not shown) [Compound 133, N-(6-Bromo-2,3,4,9-tetrahydro-1H-carbazol-1-yl)-2,4-difluoro-benzamide]: > 8.00; `O/N=C1\CCCc2c1[nH]c1ccc(Br)cc21` [Compound 87, 6-Bromo-2,3,4,9-tetrahydro-carbazol-1-one oxime]: < 6.00.
As to `O=C(Nc1ccccc1)NC1CCCc2c1[nH]c1ccc(Br)cc21` (stereo not shown) [Compound 81, 1-(6-Bromo-2,3,4,9-tetrahydro-1H-carbazol 1-yl)-3-phenyl-urea], the pEC50 was < 6.00.
Still for that read-out and setting: the figure for `Brc1ccc2[nH]c3c(c2c1)CCCC3NCCCn1ccnc1` (stereo not shown) [Compound 114, (6-Bromo-2,3,4,9-tetrahydro-1H-carbazol-1-yl)-(3-imidazol-1-yl-propyl)-amine] is < 6.00; for `Brc1ccc2[nH]c3c(c2c1)CCCC3NCC1CCCCC1` (stereo not shown) [Compound 67, (6-Bromo-2,3,4,9-tetrahydro-1H-carbazol-1-yl)-cyclohexylmethyl-amine] it is 6.00 to 6.70.
Consider `Brc1cccc2[nH]c3c(c12)CCCC3Nc1ccccc1` (stereo not shown) [Compound 43, (5-Bromo-2,3,4,9-tetrahydro-1H-carbazol-1-yl)-phenyl-amine], for which the pEC50 is 6.70 to 7.40.
Still for that read-out and setting: the figure for `Brc1ccc2c3c([nH]c2c1)C(Nc1ccccc1)CCC3` (stereo not shown) [Compound 47, (7-Bromo-2,3,4,9-tetrahydro-1H-carbazol-1-yl)-phenyl-amine] is 6.70 to 7.40; for `FC(F)(F)c1ccc2[nH]c3c(c2c1)CCCC3Nc1ccc(Cl)cc1` (stereo not shown) [Compound 138, (4-Chloro-phenyl)-(6-trifluoromethyl-2,3,4,9-tetrahydro-1H-carbazol-1-yl)-amine] it is 7.40 to 8.00; for `Fc1ccc(OC2CCCc3c2[nH]c2ccc(Br)cc32)cc1` (stereo not shown) [Compound 54, 6-Bromo-1-(4-fluoro-phenoxy)-2,3,4,9-tetrahydro-1H-carbazole] it is 6.70 to 7.40.
With `Cc1ccc2[nH]c3c(c2c1)CCCC3=O` [Compound 71, 6-Methyl-2,3,4,9-tetrahydro-carbazol-1-one], the pEC50 is 6.00 to 6.70.
The same measure, in the same setting: the figure for `FC(F)(F)Oc1ccc2[nH]c3c(c2c1)CCCC3Nc1ccccc1` (stereo not shown) [Compound 34, Phenyl-(6-trifluoromethoxy-2,3,4,9-tetrahydro-1H-carbazol-1-yl)-amine] is 7.40 to 8.00.
Same read-out and setting: next, `O=C1c2sccc2CN1C1CCCc2c1[nH]c1ccc(Br)cc21` (stereo not shown) [Compound 5, 5-(6-Bromo-2,3,4,9-tetrahydro-1H-carbazol-1-yl)-4,5-dihydro-thieno[2,3-c]pyrrol-6-one]: > 8.00.
Turning to `O=C(NC1CCCc2c1[nH]c1ccc(Br)cc21)c1cccs1` (stereo not shown) [Compound 128, Thiophene-2-carboxylic acid (6-bromo-2,3,4,9-tetrahydro-1H-carbazol-1-yl)-amide], the pEC50 was > 8.00.
The same measure, in the same setting: next, `COc1cccc(NC2CCCc3c2[nH]c2ccc(Br)cc32)c1` (stereo not shown) [Compound 10, (6-Bromo-2,3,4,9-tetrahydro-1H-carbazol-1-yl)-(3-methoxy-phenyl)-amine]: > 8.00.
The same measure, in the same setting: next, `Brc1ccc2[nH]c3c(c2c1)CCCC3Nc1ccc(N2CCOCC2)cc1` (stereo not shown) [Compound 40, (6-Bromo-2,3,4,9-tetrahydro-1H-carbazol-1-yl)-(4-morpholin-4-yl-phenyl)-amine]: 6.70 to 7.40.

Still in this test, the particulars now being: Homo sapiens, HeLa, compounds 191-239, hypoxic conditions, VEGF protein by ELISA, read-out: ELISA Activity EC50.
With `COCCN(C)CC(O)COc1ccc(C2CCCc3c2[nH]c2ccc(Br)cc32)cc1` (stereo not shown) [Compound 200], the pEC50 was > 8.00.
On the same count and under the same terms, next, `OC(COc1ccc(C2CCCCc3c2[nH]c2ccc(Br)cc32)cc1)CN1CCOCC1` (stereo not shown) [Compound 225]: 6.70 to 7.40; `Oc1ccc(C2CCCc3c2[nH]c2ccc(Cl)cc32)cc1` (stereo not shown) [Compound 223]: 6.70 to 7.40; `Brc1ccc2[nH]c3c(c2c1)CCCC3c1ccc(OCCCN2CCSCC2)cc1` (stereo not shown) [Compound 206]: > 8.00.
Still for that read-out and setting: the figure for `OC(COc1ccc(C2CCCCc3c2[nH]c2ccc(Cl)cc32)cc1)CN1CCSCC1` (stereo not shown) [Compound 233] is > 8.00.

Still in this test, the particulars now being: Homo sapiens, HeLa, purchased compounds 156-188, hypoxic conditions, VEGF protein by ELISA, read-out: ELISA Activity.
Regarding `CC(=O)N(Cc1ccccc1)C1CCCc2c1[nH]c1ccc(C)cc21` (stereo not shown) [Compound 174, N-Benzyl-N-(6-methyl-2,3,4,9-tetrahydro-1H-carbazol-1-yl)-acetamide], the pEC50 is < 6.00.
Regarding `Cc1ccc2c(c1)c1c3n2CCN(C(=O)CN2CCN(C(=O)c4ccco4)CC2)C3CCC1` (stereo not shown) [Compound 170, 2-[4-(Furan-2-carbonyl)-piperazin-1-yl]-(8-methyl-1,2,3,3a,4,5,6-hexahydro-pyrazino[3,2,1-jk]carbazol-3-yl)-ethanone], the pEC50 was < 6.00.
As for `Cc1ccc2c(c1)c1c3n2CCN(C(C)c2ccccc2)C3CCC1` (stereo not shown) [Compound 179, 8-Methyl-3-(1-phenyl-ethyl)-2,3,3a,4,5,6-hexahydro-1H-pyrazino[3,2,1-jk]carbazole], the pEC50 is < 6.00.
For `Cc1ccc2[nH]c3c(c2c1)CCCC3NCc1ccc(Cl)cc1` (stereo not shown) [Compound 160, (4-Chloro-benzyl)-(6-methyl-2,3,4,9-tetrahydro-1H-carbazol-1-yl)-amine], the pEC50 is 6.00 to 6.70.
The same measure, in the same setting: the figure for `Cc1ccc2c(c1)c1c3n2CCN(C(=O)c2ccccc2Cl)C3CCC1` (stereo not shown) [Compound 171, (2-Chloro-phenyl)-(8-methyl-1,2,3a,4,5,6-hexahydro-pyrazino[3,2,1-jk]carbazol-3-yl)-methanone] is < 6.00; for `Cc1ccc2c(c1)c1c3n2CCN(N=O)C3CCC1` (stereo not shown) [Compound 162, 8-Methyl-3-nitroso-2,3,3a,4,5,6-hexahydro-1H-pyrazino[3,2,1-jk]carbazole] it is 6.00 to 6.70; for `Cc1ccc2[nH]c3c(c2c1)CCCC3NC1CCCCC1` (stereo not shown) [Compound 161, Cyclohexyl-(6-methyl-2,3,4,9-tetrahydro-1H-carbazol-1-yl)-amine] it is 6.00 to 6.70.
The same measure, in the same setting: next, `COc1ccc(Oc2ccc3c(c2)c2c4n3CCNC4CCC2)cc1` (stereo not shown) [Compound 187, 8-(4-Methoxy-phenoxy)-2,3,3a,4,5,6-hexahydro-1H-pyrazino[3,2,1-jk]carbazole methanesulfonic acid]: < 6.00.

The test is the same for the next values; noted with them: Homo sapiens, HeLa, purchased compounds 156-188, hypoxic conditions, VEGF protein by ELISA, read-out: ELISA EC50.
In the case of `CC(=O)N(Cc1ccccc1)C1CCCc2c1[nH]c1ccc(C)cc21` (stereo not shown) [Compound 174, N-Benzyl-N-(6-methyl-2,3,4,9-tetrahydro-1H-carbazol-1-yl)-acetamide], the pEC50 was < 5.00.
Still for that read-out and setting: next, `Cc1ccc2c(c1)c1c3n2CCN(C(=O)CN2CCN(C(=O)c4ccco4)CC2)C3CCC1` (stereo not shown) [Compound 170, 2-[4-(Furan-2-carbonyl)-piperazin-1-yl]-(8-methyl-1,2,3,3a,4,5,6-hexahydro-pyrazino[3,2,1-jk]carbazol-3-yl)-ethanone]: < 5.00; `Cc1ccc2c(c1)c1c3n2CCN(C(C)c2ccccc2)C3CCC1` (stereo not shown) [Compound 179, 8-Methyl-3-(1-phenyl-ethyl)-2,3,3a,4,5,6-hexahydro-1H-pyrazino[3,2,1-jk]carbazole]: < 5.00; `Cc1ccc2[nH]c3c(c2c1)CCCC3NCc1ccc(Cl)cc1` (stereo not shown) [Compound 160, (4-Chloro-benzyl)-(6-methyl-2,3,4,9-tetrahydro-1H-carbazol-1-yl)-amine]: 6.38.
For `Cc1ccc2c(c1)c1c3n2CCN(C(=O)c2ccccc2Cl)C3CCC1` (stereo not shown) [Compound 171, (2-Chloro-phenyl)-(8-methyl-1,2,3a,4,5,6-hexahydro-pyrazino[3,2,1-jk]carbazol-3-yl)-methanone], the pEC50 was < 5.00.
Same read-out and setting: the figure for `Cc1ccc2c(c1)c1c3n2CCN(N=O)C3CCC1` (stereo not shown) [Compound 162, 8-Methyl-3-nitroso-2,3,3a,4,5,6-hexahydro-1H-pyrazino[3,2,1-jk]carbazole] is 6.05; for `Cc1ccc2[nH]c3c(c2c1)CCCC3NC1CCCCC1` (stereo not shown) [Compound 161, Cyclohexyl-(6-methyl-2,3,4,9-tetrahydro-1H-carbazol-1-yl)-amine] it is 6.17.
Still for that read-out and setting: next, `COc1ccc(Oc2ccc3c(c2)c2c4n3CCNC4CCC2)cc1` (stereo not shown) [Compound 187, 8-(4-Methoxy-phenoxy)-2,3,3a,4,5,6-hexahydro-1H-pyrazino[3,2,1-jk]carbazole methanesulfonic acid]: 4.74.

The record behind these values is patent US9271960B2, “Tetrahydrocarbazoles as active agents for inhibiting VEGF production by translational control” (PTC Therapeutics, Inc., priority 2004, dated 2016).
